Where “and” joins values, the source holds several entries; their conditions need not be identical. Equal entries are not always repeated.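 48-hour exposure; five concentrations; linearly interpolated endpoints. GI50 is the concentration that inhibits growth by half. TGI denotes the concentration required for complete inhibition of growth.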
Key:
Assay in all cases: NCI anticancer screen, dose series, 48 h
786-0 renal = tested on: 786-0 renal
A498 renal = tested on: A498 renal
A549 NSCLC = tested on: A549 NSCLC
ACHN renal = tested on: ACHN renal
BT-549 breast = tested on: BT-549 breast
CAKI-1 renal = tested on: CAKI-1 renal
CCRF-CEM leukemia = tested on: CCRF-CEM leukemia
COLO 205 colon = tested on: COLO 205 colon
DLD-1 colon = tested on: DLD-1 colon
DMS 114 small cell lung = tested on: DMS 114 small cell lung
DMS 273 small cell lung = tested on: DMS 273 small cell lung
DU-145 prostate = tested on: DU-145 prostate
EKVX NSCLC = tested on: EKVX NSCLC
HCC-2998 colon = tested on: HCC-2998 colon
HCT-116 colon = tested on: HCT-116 colon
HCT-15 colon = tested on: HCT-15 colon
HL-60(TB) leukemia = tested on: HL-60(TB) leukemia
HOP-18 NSCLC = tested on: HOP-18 NSCLC
HOP-62 NSCLC = tested on: HOP-62 NSCLC
HOP-92 NSCLC = tested on: HOP-92 NSCLC
HS 578T breast = tested on: HS 578T breast
HT29 colon = tested on: HT29 colon
IGROV1 ovarian = tested on: IGROV1 ovarian
K-562 leukemia = tested on: K-562 leukemia
KM12 colon = tested on: KM12 colon
KM20L2 colon = tested on: KM20L2 colon
LOX IMVI melanoma = tested on: LOX IMVI melanoma
LXFL 529 NSCLC = tested on: LXFL 529 NSCLC
M14 melanoma = tested on: M14 melanoma
M19-MEL melanoma = tested on: M19-MEL melanoma
MALME-3M melanoma = tested on: MALME-3M melanoma
MCF7 breast = tested on: MCF7 breast
MDA-MB-231 breast = tested on: MDA-MB-231 breast
MDA-MB-435 = tested on: MDA-MB-435
MOLT-4 leukemia = tested on: MOLT-4 leukemia
NCI-H226 lung = tested on: NCI-H226 lung
NCI-H23 lung = tested on: NCI-H23 lung
NCI-H460 lung = tested on: NCI-H460 lung
NCI-H522 lung = tested on: NCI-H522 lung
NCI/ADR-RES ovarian = tested on: NCI/ADR-RES ovarian
OVCAR-3 ovarian = tested on: OVCAR-3 ovarian
OVCAR-4 ovarian = tested on: OVCAR-4 ovarian
OVCAR-5 ovarian = tested on: OVCAR-5 ovarian
OVCAR-8 ovarian = tested on: OVCAR-8 ovarian
PC-3 prostate = tested on: PC-3 prostate
RPMI-8226 leukemia = tested on: RPMI-8226 leukemia
RXF 393 renal = tested on: RXF 393 renal
SF-268 CNS = tested on: SF-268 CNS
SF-295 CNS = tested on: SF-295 CNS
SF-539 CNS = tested on: SF-539 CNS
SK-MEL-2 melanoma = tested on: SK-MEL-2 melanoma
SK-MEL-28 melanoma = tested on: SK-MEL-28 melanoma
SK-MEL-5 melanoma = tested on: SK-MEL-5 melanoma
SK-OV-3 ovarian = tested on: SK-OV-3 ovarian
SN12C renal = tested on: SN12C renal
SN12K1 renal = tested on: SN12K1 renal
SNB-19 CNS = tested on: SNB-19 CNS
SNB-75 CNS = tested on: SNB-75 CNS
SNB-78 CNS = tested on: SNB-78 CNS
SR leukemia = tested on: SR leukemia
SW-620 colon = tested on: SW-620 colon
T-47D breast = tested on: T-47D breast
TK-10 renal = tested on: TK-10 renal
U251 CNS = tested on: U251 CNS
UACC-257 melanoma = tested on: UACC-257 melanoma
UACC-62 melanoma = tested on: UACC-62 melanoma
UO-31 renal = tested on: UO-31 renal

C/C(=N\NC(=S)N1CCN(C2CCCCCC2)CC1)c1ccccn1
GI50 (786-0 renal): 12.1 nM | TGI (786-0 renal): 3580 nM and 1950 nM | TGI (A498 renal): 3760 nM | TGI (A549 NSCLC): 1860 nM | GI50 (ACHN renal): 1.21 nM | TGI (ACHN renal): 2700 nM | TGI (BT-549 breast): 2780 nM | GI50 (CAKI-1 renal): 155 nM | TGI (CAKI-1 renal): 3500 nM | GI50 (CCRF-CEM leukemia): < 1 nM | TGI (CCRF-CEM leukemia): 291 nM and 2400 nM | TGI (COLO 205 colon): 1480 nM | GI50 (DLD-1 colon): < 1 nM | TGI (DLD-1 colon): 1960 nM | GI50 (DMS 114 small cell lung): < 1 nM | TGI (DMS 114 small cell lung): 46.1 nM and < 40.8 nM | GI50 (DMS 273 small cell lung): < 1 nM | TGI (DMS 273 small cell lung): 8260 nM and 2190 nM | TGI (DU-145 prostate): 2440 nM | TGI (EKVX NSCLC): 2860 nM | GI50 (HCC-2998 colon): 1400 nM | TGI (HCC-2998 colon): 3300 nM and 2080 nM | GI50 (HCT-116 colon): < 1 nM | TGI (HCT-116 colon): 1650 nM | GI50 (HCT-15 colon): < 1 nM | TGI (HCT-15 colon): 3550 nM and 2100 nM | GI50 (HL-60(TB) leukemia): < 1 nM | GI50 (HOP-18 NSCLC): 422 nM | TGI (HOP-18 NSCLC): 7890 nM | GI50 (HOP-62 NSCLC): 19.8 nM and < 15.6 nM | TGI (HOP-62 NSCLC): 1410 nM | GI50 (HOP-92 NSCLC): 7.88 nM | TGI (HOP-92 NSCLC): 3050 nM | TGI (HS 578T breast): 4630 nM | TGI (HT29 colon): 1840 nM | GI50 (IGROV1 ovarian): < 1 nM | TGI (IGROV1 ovarian): 3700 nM | GI50 (K-562 leukemia): < 1 nM | TGI (K-562 leukemia): 1670 nM and 970 nM | GI50 (KM12 colon): 22.9 nM | TGI (KM12 colon): 3130 nM | GI50 (KM20L2 colon): 3830 nM | TGI (KM20L2 colon): 8960 nM and 2070 nM | GI50 (LOX IMVI melanoma): 17.3 nM | TGI (LOX IMVI melanoma): 5290 nM and 1830 nM | TGI (LXFL 529 NSCLC): 2670 nM | GI50 (M14 melanoma): < 1 nM | TGI (M14 melanoma): 2850 nM and 1200 nM | GI50 (M19-MEL melanoma): 928 nM | TGI (M19-MEL melanoma): 3370 nM | GI50 (MALME-3M melanoma): 38.2 nM | TGI (MALME-3M melanoma): 3090 nM | TGI (MCF7 breast): 2050 nM | TGI (MDA-MB-231 breast): 2850 nM | TGI (MDA-MB-435): 2000 nM | GI50 (MOLT-4 leukemia): < 1 nM | TGI (MOLT-4 leukemia): 1520 nM and 3720 nM | GI50 (NCI-H226 lung): 2880 nM | TGI (NCI-H226 lung): 2700 nM | TGI (NCI-H23 lung): 5770 nM | TGI (NCI-H460 lung): 1450 nM | GI50 (NCI-H522 lung): < 1 nM | TGI (NCI-H522 lung): 120 nM and 267 nM | TGI (NCI/ADR-RES ovarian): 676 nM | TGI (OVCAR-3 ovarian): 1740 nM | TGI (OVCAR-4 ovarian): 3120 nM | TGI (OVCAR-5 ovarian): 3010 nM | GI50 (OVCAR-8 ovarian): < 1 nM | TGI (OVCAR-8 ovarian): 7940 nM and 2630 nM | TGI (PC-3 prostate): 2070 nM | GI50 (RPMI-8226 leukemia): < 1 nM | GI50 (RXF 393 renal): 2450 nM | TGI (RXF 393 renal): 2500 nM | TGI (SF-268 CNS): 5500 nM | GI50 (SF-295 CNS): 3.02 nM | TGI (SF-295 CNS): 5670 nM and 2910 nM | GI50 (SF-539 CNS): 29.4 nM | TGI (SF-539 CNS): 2500 nM and 2010 nM | GI50 (SK-MEL-2 melanoma): 2020 nM | TGI (SK-MEL-2 melanoma): 9660 nM and 3160 nM | GI50 (SK-MEL-28 melanoma): 4080 nM | TGI (SK-MEL-28 melanoma): 2250 nM | GI50 (SK-MEL-5 melanoma): 20.4 nM | TGI (SK-MEL-5 melanoma): 8380 nM and 1010 nM | TGI (SK-OV-3 ovarian): 2960 nM | GI50 (SN12C renal): 2020 nM | TGI (SN12C renal): 2960 nM | TGI (SN12K1 renal): 1560 nM | GI50 (SNB-19 CNS): 3170 nM | TGI (SNB-19 CNS): 8300 nM | TGI (SNB-75 CNS): 5090 nM | GI50 (SNB-78 CNS): 4580 nM | TGI (SNB-78 CNS): 19000 nM | TGI (SR leukemia): 1060 nM | GI50 (SW-620 colon): 407 nM | TGI (SW-620 colon): 3830 nM and 1910 nM | TGI (T-47D breast): 2220 nM | GI50 (TK-10 renal): 420 nM | TGI (TK-10 renal): 3340 nM | GI50 (U251 CNS): < 1 nM | TGI (U251 CNS): 3000 nM and 2100 nM | GI50 (UACC-257 melanoma): < 1 nM | TGI (UACC-257 melanoma): 1210 nM | TGI (UACC-62 melanoma): 1950 nM | GI50 (UO-31 renal): 1350 nM | TGI (UO-31 renal): 3750 nM and 1500 nM

Reference: PubChem BioAssay (NCI)
